Consider 15 compounds from ChEMBL document CHEMBL4177661, “Improvement in aqueous solubility achieved via small molecular changes” (Bioorg Med Chem Lett, 2017).

≈ marks a conversion by molar mass, not a printed value.

The first data set can be described thus: Solubility of the compound. It is filed as physicochemical.
Conditions: not given
As to `Oc1cccc2nccnc12`, the concentration in solution (solubility) came to 6600 µg/mL (≈ 45200 µM).

As to `c1ccc2cnccc2c1` [ISOQUINOLINE], the concentration in solution (solubility) came to 5660 µg/mL (≈ 43800 µM).

With `Oc1cccc2ccnnc12`, the concentration in solution (solubility) came to 600 µg/mL (≈ 4110 µM).

With `C=CCCCCCC`, the solubility (commonly the concentration that dissolves in the medium under given conditions) turned out to be 3 µg/mL (≈ 26.7 µM).

On to `C1CCCCCCC1` [CYCLOOCTANE], for which the concentration in solution (solubility) came to 7 µg/mL (≈ 62.4 µM).

For the compound `Oc1cccc2cncnc12`, the concentration in solution (solubility) was 1300 µg/mL (≈ 8900 µM).

For the compound `CCCCCCCC` [OCTANE], the solubility came out at 1 µg/mL (≈ 8.75 µM).

The next data set in a line: Dissociation constant, pKa of the compound. The data set is classed as physicochemical.
Conditions: not given
As to `c1cnccn1` [PYRAZINE], the pKa (as a rule, the negative logarithm of the acid dissociation constant) was determined as 0.7.

The next data set can be described thus: physchem. The settings on record: octanol/water.
Description: Lipophilicity, log P of the compound
With `C1CCCCCCC1` [CYCLOOCTANE], the logP (in general, a log measure of how a compound divides between an organic and an aqueous phase) stood at 4.07.

As for `c1ccc2c(c1)CCNC2` [1,2,3,4-TETRAHYDROISOQUINOLINE], the logP came to 1.71.

The compound `CCCCCCCC` [OCTANE] registered a logP of 4.93.

`c1cncnc1` [PYRIMIDINE] had a log partition coefficient (logP) of -0.44.

Another data set in a line: Solubility of the compound at pH 7.4. The note with it: buffer. The data set is classed as physicochemical.
With `O=C(Nc1ccc(-c2nc(-c3ccccc3)no2)cc1)c1ccccc1`, the solubility amounted to 6.12 µg/mL (≈ 17.9 µM).

Take `O=C(Nc1ccc(-c2nc(-c3ccccc3)no2)cc1)c1ccc(F)cc1`: the concentration in solution (solubility) was 5.23 µg/mL (≈ 14.6 µM).

For `O=C(Nc1ccc(-c2nnc(-c3ccccc3)o2)cc1)c1ccc(F)cc1`, the concentration in solution (solubility) was 5 µg/mL (≈ 13.9 µM).

For the compound `O=C(Nc1ccc(-c2nnc(-c3ccccc3)o2)cc1)c1ccccc1`, the concentration in solution (solubility) came to 5.89 µg/mL (≈ 17.3 µM).

A short description of another data set: physchem. The settings on record: water.
Description: Solubility of the compound in water at 35 degC
Compound `CC(C)CCC[C@@H](C)[C@H]1CC[C@H]2[C@@H]3CC[C@H]4C[C@@H](O)CC[C@]4(C)[C@H]3CC[C@]12C` gave a solubility of 0.009 µg/mL (≈ 0.0232 µM).
